Common to all, as to assay type: biochemical
One test deals with PI3K-gamma (Homo sapiens, UniProt P48736). Put plainly: PI3K-gamma fluorescence polarization assay. The following applies: PI3Kγ Avg. IC50. Summed up:
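Enzyme 5 ng; substrate diC8-PI(4,5)P2 2.5 μM; ATP 25 μM; 5 mM HEPES pH 7, 2.5 mM MgCl2; DMSO ≤2%; 1 h, 25° C. Quench 10 mM EDTA. Detect with GRP1 PH domain 100 nM + TMR-IP4 probe 5 nM by polarization.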

The target of the next test is T1, human TOR (Homo sapiens, UniProt P42345).
T1 construct: FLAG
Nature of the test: mTOR enzyme assay (DELFIA, His6-S6K substrate). The following applies: read-out: mTOR Kinase Avg. IC50.

A further test has as its target PI3K-alpha (Homo sapiens, UniProt P42336). Put plainly: PI3K-alpha fluorescence polarization assay. The following applies: read-out: PI3Kα Avg. IC50.

A value given as a limit tells only on which side of the number the result lay.

Chain of PI3K-gamma (P48736 whole entry, species assumed, the tested form may be a part): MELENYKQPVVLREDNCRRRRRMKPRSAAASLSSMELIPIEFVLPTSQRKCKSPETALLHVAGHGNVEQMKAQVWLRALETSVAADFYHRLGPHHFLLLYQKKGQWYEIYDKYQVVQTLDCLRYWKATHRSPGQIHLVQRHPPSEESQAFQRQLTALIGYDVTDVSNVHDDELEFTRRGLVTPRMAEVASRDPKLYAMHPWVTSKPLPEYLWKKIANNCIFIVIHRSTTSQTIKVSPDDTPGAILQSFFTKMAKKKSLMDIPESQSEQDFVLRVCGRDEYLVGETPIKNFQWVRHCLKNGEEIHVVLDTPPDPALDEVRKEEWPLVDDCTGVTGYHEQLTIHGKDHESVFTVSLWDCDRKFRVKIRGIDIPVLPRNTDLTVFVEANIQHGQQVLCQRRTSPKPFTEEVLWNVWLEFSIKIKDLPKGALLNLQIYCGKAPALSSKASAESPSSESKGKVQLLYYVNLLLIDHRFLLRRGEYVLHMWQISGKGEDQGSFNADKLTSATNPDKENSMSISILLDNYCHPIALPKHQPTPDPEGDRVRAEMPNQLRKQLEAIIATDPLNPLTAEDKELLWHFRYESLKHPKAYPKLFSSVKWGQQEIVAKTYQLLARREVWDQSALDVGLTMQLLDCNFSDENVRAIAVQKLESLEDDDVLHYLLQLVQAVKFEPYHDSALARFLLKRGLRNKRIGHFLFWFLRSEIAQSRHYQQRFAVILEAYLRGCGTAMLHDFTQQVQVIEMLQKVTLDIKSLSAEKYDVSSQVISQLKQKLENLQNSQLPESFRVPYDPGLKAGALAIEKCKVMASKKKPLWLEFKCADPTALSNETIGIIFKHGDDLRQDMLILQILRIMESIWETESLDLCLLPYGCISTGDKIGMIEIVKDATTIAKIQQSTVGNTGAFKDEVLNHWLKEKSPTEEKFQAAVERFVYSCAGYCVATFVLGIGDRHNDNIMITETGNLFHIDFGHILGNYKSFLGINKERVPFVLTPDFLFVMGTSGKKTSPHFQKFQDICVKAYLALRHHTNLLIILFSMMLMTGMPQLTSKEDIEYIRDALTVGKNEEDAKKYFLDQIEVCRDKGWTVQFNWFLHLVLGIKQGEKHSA
Chain of PI3K-alpha (P42336 whole entry, species assumed): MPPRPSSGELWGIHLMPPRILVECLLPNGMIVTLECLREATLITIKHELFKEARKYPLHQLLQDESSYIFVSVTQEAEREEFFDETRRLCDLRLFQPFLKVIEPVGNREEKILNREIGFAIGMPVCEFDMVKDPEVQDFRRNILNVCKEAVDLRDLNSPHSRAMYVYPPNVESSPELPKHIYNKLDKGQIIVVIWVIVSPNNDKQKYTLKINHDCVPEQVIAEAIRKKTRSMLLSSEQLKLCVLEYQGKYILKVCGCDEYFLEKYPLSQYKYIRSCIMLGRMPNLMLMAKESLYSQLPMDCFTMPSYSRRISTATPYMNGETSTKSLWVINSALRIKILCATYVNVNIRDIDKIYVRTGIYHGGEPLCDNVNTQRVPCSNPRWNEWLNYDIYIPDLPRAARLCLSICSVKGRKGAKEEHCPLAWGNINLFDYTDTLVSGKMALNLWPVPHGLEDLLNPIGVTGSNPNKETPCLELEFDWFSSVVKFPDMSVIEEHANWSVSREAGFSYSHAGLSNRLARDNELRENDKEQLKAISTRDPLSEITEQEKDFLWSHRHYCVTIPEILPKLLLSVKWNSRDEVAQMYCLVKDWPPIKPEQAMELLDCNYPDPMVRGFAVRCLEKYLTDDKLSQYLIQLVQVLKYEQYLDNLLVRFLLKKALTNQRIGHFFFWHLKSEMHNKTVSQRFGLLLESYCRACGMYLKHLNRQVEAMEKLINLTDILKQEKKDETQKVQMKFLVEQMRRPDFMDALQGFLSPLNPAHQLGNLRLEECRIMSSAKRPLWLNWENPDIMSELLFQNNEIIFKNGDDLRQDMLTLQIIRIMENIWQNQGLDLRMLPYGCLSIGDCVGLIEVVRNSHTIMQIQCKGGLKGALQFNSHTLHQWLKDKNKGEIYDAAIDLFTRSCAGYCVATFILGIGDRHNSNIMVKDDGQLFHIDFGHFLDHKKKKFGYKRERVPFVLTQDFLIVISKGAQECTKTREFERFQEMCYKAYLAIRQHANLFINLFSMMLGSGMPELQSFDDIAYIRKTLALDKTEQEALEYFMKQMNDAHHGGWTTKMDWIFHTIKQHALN
Chain of PI3K-alpha (P27986 whole entry partner, species assumed): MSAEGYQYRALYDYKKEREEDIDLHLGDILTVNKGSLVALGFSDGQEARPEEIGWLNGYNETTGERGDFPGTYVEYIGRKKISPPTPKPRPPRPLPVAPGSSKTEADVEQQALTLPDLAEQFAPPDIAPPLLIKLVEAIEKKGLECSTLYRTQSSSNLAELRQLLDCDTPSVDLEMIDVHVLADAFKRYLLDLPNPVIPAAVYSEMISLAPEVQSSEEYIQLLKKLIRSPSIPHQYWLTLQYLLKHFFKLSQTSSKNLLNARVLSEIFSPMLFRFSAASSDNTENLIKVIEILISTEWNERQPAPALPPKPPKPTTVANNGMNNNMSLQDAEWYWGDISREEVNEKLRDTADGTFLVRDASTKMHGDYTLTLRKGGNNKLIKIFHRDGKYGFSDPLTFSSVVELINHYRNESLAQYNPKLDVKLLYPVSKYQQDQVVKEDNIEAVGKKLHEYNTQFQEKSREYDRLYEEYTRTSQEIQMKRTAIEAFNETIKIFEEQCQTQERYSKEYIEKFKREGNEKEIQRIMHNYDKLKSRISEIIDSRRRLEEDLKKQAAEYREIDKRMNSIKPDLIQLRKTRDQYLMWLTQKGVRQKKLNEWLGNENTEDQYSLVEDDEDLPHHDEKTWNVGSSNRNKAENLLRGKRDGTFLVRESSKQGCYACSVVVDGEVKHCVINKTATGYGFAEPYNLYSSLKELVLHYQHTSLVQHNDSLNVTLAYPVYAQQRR

As to `COc1ccc2[nH]c(-c3c(C)nn(C)c3C)c(/C=C3\Oc4ccc(NC(=O)Nc5cccc(C(=O)N(C)CCCN(C)C)c5)cc4C3=O)c2c1` [Compound 708, N-[3-(dimethylamino)propyl]-3-({[(2Z)-2-{[5-methoxy-2-(1,3,5-trimethyl-1H-pyrazol-4-yl)-1H-indol-3-yl]methylidene}-3-oxo-2,3-dihydro-1-benzofuran-5-yl]carbamoyl}amino)-N-methylbenzamide], the IC50 at PI3K-gamma came out at 351 nM; at human TOR, 115 nM; on PI3K-alpha, 42 nM.
Regarding `Cn1c(-c2cccc(F)c2)c(C=C2Oc3cc(O)cc(O)c3C2=O)c2ccccc21` [Example 197, 2-{[2-(3-fluorophenyl)-1-methyl-1H-indol-3-yl]methylene}-4,6-dihydroxy-1-benzofuran-3(2H)-one], the IC50 at PI3K-gamma is 9160 nM; at human TOR, 280 nM; at PI3K-alpha, 1100 nM.
For the molecule `COc1ccc2[nH]cc(C=C3Oc4cc(S(C)(=O)=O)ccc4C3=O)c2c1` [Example 436, 2-[(5-Methoxy-1H-indol-3-yl)methylene]-6-(methylsulfonyl)-1-benzofuran-3(2H)-one], the IC50 against PI3K-gamma was more than 10000 nM; on human TOR it was more than 20000 nM; at PI3K-alpha it was more than 10000 nM.
`Cn1cc(C=C2Oc3cc(O)cc(O)c3C2=O)c2c(C#N)cccc21` [Example 188, 3-[(4,6-dihydroxy-3-oxo-1-benzofuran-2(3H)-ylidene)methyl]-1-methyl-1H-indole-4-carbonitrile]: the figures for the IC50 against PI3K-gamma, on human TOR and on PI3K-alpha were more than 10000 nM, 260 nM and 1800 nM, respectively.
`CCn1c(C)c(/C=C2\Oc3ccc(NC(=O)Nc4ccc(NC(=O)CCN(C)C)cc4)cc3C2=O)c2cc(OC)ccc21` [Compound 676, N-{4-[({(2Z)-2-[(1-ethyl-5-methoxy-2-methyl-1H-indol-3-yl)methylidene]-3-oxo-2,3-dihydro-1-benzofuran-5-yl}carbamoyl)amino]phenyl}-N3,N3-dimethyl-b-alaninamide]: the figures for the IC50 at PI3K-gamma, on human TOR and at PI3K-alpha were 3.25 nM, 7 nM and 0.3 nM, respectively.
As to `COc1ccc2c(c1)c(/C=C1\Oc3ccc(NC(=O)Nc4ccc(OCCCCN(C)C)cc4)cc3C1=O)c(C)n2CCN1CCN(C)CC1` [Compound 674, 1-{4-[4-(dimethylamino)butoxy]phenyl}-3-[(2Z)-2-({5-methoxy-2-methyl-1-[2-(4-methylpiperazin-1-yl)ethyl]-1H-indol-3-yl}methylidene)-3-oxo-2,3-dihydro-1-benzofuran-5-yl]urea], the IC50 was determined as 686 nM against PI3K-gamma, 350 nM at human TOR and 10 nM at PI3K-alpha.
Take `CCn1c(C)c(/C=C2\Oc3ccc(NC(=O)Nc4ccc(C(=O)C5CCN(C)CC5)cc4)cc3C2=O)c2cc(OC)ccc21` [Compound 651, 1-{(2Z)-2-[(1-ethyl-5-methoxy-2-methyl-1H-indol-3-yl)methylene]-3-oxo-2,3-dihydro-1-benzofuran-5-yl}-3-{4-[(1-methylpiperidin-4-yl)carbonyl]phenyl}urea]: the results for the IC50 at PI3K-gamma, at human TOR and at PI3K-alpha were 19.7 nM, 783 nM and 0.9 nM, respectively.
Turning to `COc1ccc2[nH]c(-c3c(C)nn(C)c3C)c(/C=C3\Oc4ccc(NC(=O)Nc5ccc(C(=O)N(C)CCN(C)C)cc5)cc4C3=O)c2c1` [Compound 682, N-[2-(dimethylamino)ethyl]-4-({[(2Z)-2-{[5-methoxy-2-(1,3,5-trimethyl-1H-pyrazol-4-yl)-1H-indol-3-yl]methylidene}-3-oxo-2,3-dihydro-1-benzofuran-5-yl]carbamoyl}amino)-N-methylbenzamide], the IC50 was 1.98 nM against PI3K-gamma, 1 nM at human TOR and 0.3 nM at PI3K-alpha.
As for `CCn1c(C)c(/C=C2\Oc3ccc(NC(=O)Nc4ccc(CN(C)C)cc4)cc3C2=O)c2cc(OC)ccc21` [Compound 719, 1-{4-[(dimethylamino)methyl]phenyl}-3-{(2Z)-2-[(1-ethyl-5-methoxy-2-methyl-1H-indol-3-yl)methylidene]-3-oxo-2,3-dihydro-1-benzofuran-5-yl}urea], the results for the IC50 against PI3K-gamma, on human TOR and at PI3K-alpha were 41.5 nM, 275 nM and 3.1 nM, respectively.
With `CCn1c(C)c(/C=C2\Oc3ccc(NC(=O)Nc4ccc(CCN(C)C)cc4)cc3C2=O)c2cc(OC)ccc21` [Compound 670, 1-{4-[2-(dimethylamino)ethyl]phenyl}-3-{(2Z)-2-[(1-ethyl-5-methoxy-2-methyl-1H-indol-3-yl)methylidene]-3-oxo-2,3-dihydro-1-benzofuran-5-yl}urea], the IC50 against PI3K-gamma stood at 20.3 nM; on human TOR, 133 nM; at PI3K-alpha, 3.5 nM.
For `COc1ccc2c(c1)c(/C=C1\Oc3cc(Br)ccc3C1=O)cn2CCCN(C)C` [Example 413, (2Z)-6-bromo-2-({1-[3-(dimethylamino)propyl]-5-methoxy-1H-indol-3-yl}methylene)-1-benzofuran-3(2H)-one], the IC50 is 5610 nM on PI3K-gamma, more than 20000 nM on human TOR and 7820 nM on PI3K-alpha.
The like results for `COc1ccc2c(c1)c(/C=C1\Oc3ccc(NC(=O)Nc4ccc(C(=O)N5CCOCC5)cc4)cc3C1=O)c(C)n2CCN1CCN(C)CC1` [Compound 687, 1-[(2Z)-2-({5-methoxy-2-methyl-1-[2-(4-methylpiperazin-1-yl)ethyl]-1H-indol-3-yl}methylidene)-3-oxo-2,3-dihydro-1-benzofuran-5-yl]-3-[4-(morpholin-4-ylcarbonyl)phenyl]urea] were, in that order, 44 nM, 87 nM and 1.1 nM.
On to `COc1ccc2c(c1)c(/C=C1\Oc3cc(-c4ccc(NC(C)=O)cc4)ccc3C1=O)cn2CCCN(C)C` [Example 426, N-{4-[(2Z)-2-({1-[3-(Dimethylamino)propyl]-5-methoxy-1H-indol-3-yl}methylene)-3-oxo-2,3-dihydro-1-benzofuran-6-yl]phenyl}acetamide], for which the IC50 was more than 10000 nM against PI3K-gamma, more than 20000 nM on human TOR and 6250 nM at PI3K-alpha.
`COc1ccc2c(c1)c(/C=C1\Oc3cc(-c4cnc(N)nc4)ccc3C1=O)cn2CCCN(C)C` [Example 427, (2Z)-6-(2-Aminopyrimidin-5-yl)-2-({1-[3-(dimethylamino)propyl]-5-methoxy-1H-indol-3-yl}methylene)-1-benzofuran-3(2H)-one]: the IC50 is 3030 nM on PI3K-gamma, more than 20000 nM on human TOR and 9530 nM at PI3K-alpha.
The like results for `CNC(=O)Nc1ccc2c(c1)C(=O)/C(=C/c1c(-c3c(C)nn(CCN(C)C)c3C)[nH]c3ccc(OC)cc13)O2` [Compound 705, 1-{(2Z)-2-[(2-{1-[2-(dimethylamino)ethyl]-3,5-dimethyl-1H-pyrazol-4-yl}-5-methoxy-1H-indol-3-yl)methylidene]-3-oxo-2,3-dihydro-1-benzofuran-5-yl}-3-methylurea] were, in that order, 25.5 nM, 26 nM and 5.5 nM.
Consider `CCn1c(C)c(/C=C2\Oc3ccc(NC(=O)Nc4ccc(C(=O)N5CCC(N(C)C)CC5)cc4)cc3C2=O)c2cc(OC)ccc21` [Compound 650, 1-(4-{[4-(dimethylamino)piperidin-1-yl]carbonyl}phenyl)-3-{(2Z)-2-[(1-ethyl-5-methoxy-2-methyl-1H-indol-3-yl)methylene]-3-oxo-2,3-dihydro-1-benzofuran-5-yl}urea], for which the IC50 came out at 3 nM at PI3K-gamma, 31 nM at human TOR and 0.4 nM on PI3K-alpha.
For the molecule `Cn1cc(/C=C2\Oc3cc(O)cc(O)c3C2=O)c2c(-c3cccc(C#N)c3)cccc21` [Example 367, 3-{3-[(Z)-(4,6-Dihydroxy-3-oxo-1-benzofuran-2(3H)-ylidene)methyl]-1-methyl-1H-indol-4-yl}benzonitrile], the IC50 was found to be 5420 nM on PI3K-gamma, 500 nM at human TOR and 1440 nM at PI3K-alpha.
The like results for `CCn1c(C)c(/C=C2\Oc3ccc(NC(=O)Nc4ccc(N(C)C(=O)CCN(C)C)cc4)cc3C2=O)c2cc(OC)ccc21` [Compound 694, N-{4-[({(2Z)-2-[(1-ethyl-5-methoxy-2-methyl-1H-indol-3-yl)methylidene]-3-oxo-2,3-dihydro-1-benzofuran-5-yl}carbamoyl)amino]phenyl}-N,N3,N3-trimethyl-b-alaninamide] were, in that order, 95 nM, 155 nM and 4 nM.
`O=C1C(=Cc2c(-c3ccccc3)n(CC3CC3)c3ccccc23)Oc2cc(O)cc(O)c21` [Example 152, 2-{[1-(cyclopropylmethyl)-2-phenyl-1H-indol-3-yl]methylene}-4,6-dihydroxy-1-benzofuran-3(2H)-one]: the IC50 against PI3K-gamma is 4470 nM; at human TOR, 1450 nM; at PI3K-alpha, 4180 nM.
Take `CNC(=O)Nc1ccc2c(c1)C(=O)/C(=C/c1c(-c3c(C)nn(C)c3C)[nH]c3c(F)cc(OC)cc13)O2` [Compound 693, 1-[(2Z)-2-{[7-fluoro-5-methoxy-2-(1,3,5-trimethyl-1H-pyrazol-4-yl)-1H-indol-3-yl]methylidene}-3-oxo-2,3-dihydro-1-benzofuran-5-yl]-3-methylurea]: the results for the IC50 against PI3K-gamma, on human TOR and at PI3K-alpha were 5.07 nM, less than 1 nM and 0.75 nM, respectively.
On to `Cn1cc(/C=C2\Oc3cc(O)cc(O)c3C2=O)c2c(-c3ccc(N)cc3)cccc21` [Example 370, (2Z)-2-{[4-(4-Aminophenyl)-1-methyl-1H-indol-3-yl]methylene}-4,6-dihydroxy-1-benzofuran-3(2H)-one], for which the figures for the IC50 against PI3K-gamma, at human TOR and on PI3K-alpha were 3000 nM, 14 nM and 1070 nM, respectively.

Source of the values: US20090311217A1, “3-SUBSTITUTED-1H-INDOLE COMPOUNDS, THEIR USE AS MTOR KINASE AND PI3 KINASE INHIBITORS, AND THEIR SYNTHESES” (priority 2008, published 2009).
